Results: ChEMBL document CHEMBL1201862, “PubChem BioAssay data set” (2004)
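Interpolation was linear, between the two tested concentrations surrounding the appropriate level; five concentrations were tested over 48 hours in 96-well plates. GI50 is the concentration that inhibits growth by half.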 Active and inactive are the calls of the source. Cut-off read from the data, not from the text of the source: active = GI50 up to about 1.1 µM and inactive = higher.

Key:
Experiment in all cases: DTP human tumour cell line panel, 48 h
CAKI-1 = test system: CAKI-1
HCT-116 = test system: HCT-116
A549 = test system: A549
PC-3 = test system: PC-3
RPMI-8226 = test system: RPMI-8226
UACC-257 = test system: UACC-257
MCF7 = test system: MCF7
SK-MEL-28 = test system: SK-MEL-28
EKVX = test system: EKVX
HCT-15 = test system: HCT-15
HOP-62 = test system: HOP-62
MOLT-4 = test system: MOLT-4
ACHN = test system: ACHN
SN12C = test system: SN12C
HT-29 = test system: HT-29
T47D = test system: T47D
HL-60 = test system: HL-60
NCI-H460 = test system: NCI-H460
SF-539 = test system: SF-539
HCC 2998 = test system: HCC 2998

Row | Compound | GI50 (CAKI-1) | GI50 (HCT-116) | GI50 (A549) | GI50 (PC-3) | GI50 (RPMI-8226) | GI50 (UACC-257) | GI50 (MCF7) | GI50 (SK-MEL-28) | GI50 (EKVX) | GI50 (HCT-15) | GI50 (HOP-62) | GI50 (MOLT-4) | GI50 (ACHN) | GI50 (SN12C) | GI50 (HT-29) | GI50 (T47D) | GI50 (HL-60) | GI50 (NCI-H460) | GI50 (SF-539) | GI50 (HCC 2998)
1 | O=C1c2cc([N+](=O)[O-])ccc2-c2ccc3c4ccc5c6c(ccc(c7ccc1c2c73)c64)C(=O)c1cc([N+](=O)[O-])ccc1-5 | > 100 µM (inactive) | > 100 µM (inactive) | > 100 µM (inactive) | > 100 µM (inactive) | > 100 µM (inactive) | > 100 µM (inactive) | > 100 µM (inactive) | > 100 µM (inactive) | > 100 µM (inactive) | > 100 µM | > 100 µM (inactive) | > 100 µM (inactive) | > 100 µM (inactive) | > 100 µM (inactive) | > 100 µM (inactive) | > 100 µM (inactive) | > 100 µM (inactive) | – | – | –
2 | NC(=O)c1csc(-c2ccc(CO)o2)n1 | > 100 µM (inactive) | > 100 µM (inactive) | > 100 µM (inactive) | > 100 µM (inactive) | > 100 µM (inactive) | > 100 µM (inactive) | > 100 µM (inactive) | > 100 µM (inactive) | > 100 µM (inactive) | > 100 µM | – | > 100 µM (inactive) | > 100 µM (inactive) | > 100 µM (inactive) | > 100 µM (inactive) | > 100 µM (inactive) | > 100 µM (inactive) | > 100 µM (inactive) | > 100 µM (inactive) | –
3 | C/C(=N\Nc1nc2ccccc2s1)c1ccc2ccccc2n1 | 55.6 µM (inactive) | > 100 µM (inactive) | > 100 µM (inactive) | > 100 µM (inactive) | 18.5 µM (inactive) | > 100 µM (inactive) | 46.3 µM (inactive) | > 100 µM (inactive) | 12.2 µM (inactive) | > 100 µM | > 100 µM (inactive) | – | > 100 µM (inactive) | > 100 µM (inactive) | 85.9 µM (inactive) | 5.36 µM (inactive) | 23.2 µM (inactive) | > 100 µM (inactive) | 58.7 µM (inactive) | –
4 | CCOc1ncn(-c2ccc(NC(=S)NC34CC5CC(CC(C5)C3)C4)cc2)n1 | – | 68.4 µM (inactive) | 7.24 µM (inactive) | > 100 µM (inactive) | > 100 µM (inactive) | > 100 µM (inactive) | > 100 µM (inactive) | 61.8 µM (inactive) | > 100 µM (inactive) | > 100 µM | 35.2 µM (inactive) | > 100 µM (inactive) | – | > 100 µM (inactive) | 80.5 µM (inactive) | > 100 µM (inactive) | > 100 µM (inactive) | 53.5 µM (inactive) | > 100 µM (inactive) | > 100 µM (inactive)
5 | O=C1c2cccc3cc([N+](=O)[O-])cc(c23)C(=O)N1c1ccc(OCCN2CCCC2)cc1 | > 100 µM (inactive) | 6.79 µM (inactive) | 3.3 µM (inactive) | 22.2 µM (inactive) | – | 16.8 µM (inactive) | 7.94 µM (inactive) | 23 µM (inactive) | 21.6 µM (inactive) | 14.2 µM | 30.5 µM (inactive) | 4.85 µM (inactive) | 10 µM (inactive) | > 100 µM (inactive) | 11.7 µM (inactive) | > 100 µM (inactive) | 10.8 µM (inactive) | 3.26 µM (inactive) | 13.3 µM (inactive) | 17.1 µM (inactive)
6 | Cc1ccc(N2CCN(CCC(=O)O)CC2)cc1 | > 100 µM (inactive) | > 100 µM (inactive) | > 100 µM (inactive) | > 100 µM (inactive) | > 100 µM (inactive) | > 100 µM (inactive) | > 100 µM (inactive) | > 100 µM (inactive) | > 100 µM (inactive) | > 100 µM | > 100 µM (inactive) | – | > 100 µM (inactive) | > 100 µM (inactive) | > 100 µM (inactive) | > 100 µM (inactive) | 0.834 µM (active) | > 100 µM (inactive) | > 100 µM (inactive) | –
7 | COc1ccccc1/C=C\C(=O)C1COCN1 (stereo unspecified) | 18.3 µM (inactive) | 6.97 µM (inactive) | 23.1 µM (inactive) | 13.2 µM (inactive) | 2.24 µM (inactive) | 18.1 µM (inactive) | 5.53 µM (inactive) | 18 µM (inactive) | 19.4 µM (inactive) | 14.7 µM | 21.4 µM (inactive) | 3.95 µM (inactive) | 10.7 µM (inactive) | 16.4 µM (inactive) | 6.35 µM (inactive) | 1.45 µM (inactive) | 19 µM (inactive) | 30.9 µM (inactive) | 20.5 µM (inactive) | –
8 | CCCCOC(=O)C1CN2C(=NC1(C(F)(F)F)C(F)(F)F)Sc1ccccc12 (stereo unspecified) | > 100 µM (inactive) | 33 µM (inactive) | 40.5 µM (inactive) | 16.2 µM (inactive) | 26.1 µM (inactive) | 36.1 µM (inactive) | 32.1 µM (inactive) | 74.5 µM (inactive) | 37.2 µM (inactive) | 45.6 µM | 82.4 µM (inactive) | 23 µM (inactive) | 30.3 µM (inactive) | 98.4 µM (inactive) | 22.5 µM (inactive) | 16.8 µM (inactive) | 16.6 µM (inactive) | 34.9 µM (inactive) | 44.1 µM (inactive) | –
